Here are results for four molecules from US20200292528A1, “CELL CHEMOTAXIS ASSAYS” (The General Hospital Corporation, priority 2013, published 2020).

The subject of assay [1] is neutrophils. Briefly: Microfluidic neutrophil chemotaxis assay, healthy donor whole blood (finger prick, venous) and isolated neutrophils. The format is cell-based, human. Conditions: for neutrophils recruited from finger prick whole blood (count): average of 16 attractant chambers. The method, then:
Capillary blood (50 μL) was collected by pricking a finger of healthy volunteers. The blood was then pipetted into an eppendorf tube containing a mixed solution of HBSS media, heparin anti-coagulant (1.65 USP/50 μL of blood), and Hoescht stain (10 μL, 32.4 μM). […] Louis, Mo.) or Leukotriene B4 (LTB4) (Caymen Chemicals, Ann Arbor, Mich.) [100 nM] immediately after the PDMS donut-shaped device was bonded to the well plate. The chemoattractant solution also contained fibronectin [25 nM] (Sigma-Aldrich, St. Louis, Mo.) to promote neutrophil surface adhesion. The chemoattractant was pipetted into the whole blood loading chamber (WBLC) and directly around the circumference of the device. […] Afterwards, the central whole-blood loading chamber and the outside region surrounding the donut were washed thoroughly with Phosphate Buffered Saline (PBS) in each well to wash away excess chemoattractant. The wells of the plate were then filled with RPMI 1640 media and allowed to sit for a period of 15 minutes to generate stable chemoattractant gradients. […] Capillary blood (50 μL) was collected by pricking a finger of healthy volunteers. The blood was then pipetted into an eppendorf tube containing a mixed solution of HBSS media, heparin anti-coagulant (1.65 USP/50 μL of blood), and Hoescht stain (10 μL, 32.4 μM). […] For venous blood samples, 10 mL of peripheral blood was drawn from a health volunteer into tubes containing 33 US […] (Vacutainer, Becton Dickinson, Franklin Lakes, N.J.). […] To compare the whole blood results with neutrophil migration from an isolated sample, we also isolated human neutrophils from whole blood using HetaSep followed by the EasySep Human Neutrophil Enrichment Kits (STEMCELL Technologies Inc. Vancouver, Canada) following the manufacturer's protocol. […] Louis, Mo.) at a density of 40,000 cells/μL and kept at 37° C. cell until devices were properly primed. […] Directionality of primed neutrophils was quantified by counting the number of cells that followed the chemotactic gradient and turned at the bifurcation toward the chemoattractant chamber as opposed to the number of cells that exited the device to the peripheral region. Cell velocities were calculated using Image J (NIH) and data analysis with GraphPad Prism. Neutrophil migration toward different attractants (fMLP and LTB4) was also examined. […] The concentrations of the three different chemoattractants were varied from 10 nM to 50 nM to 100 nM. Solutions containing fibronectin [25 nM] and exclusive of fibronection were prepared. Finger prick blood and venous blood were obtained as described above in Example 3.

The subject of assay [2] is neutrophils. The experiment in a line: Microfluidic neutrophil chemotaxis assay, blood of a burn patient (24% TBSA) over 3 weeks. The format is cell-based, human. Conditions: for neutrophil accumulation counts versus healthy volunteer: three weeks post-burn. The procedure: Blood samples of 1 mL were collected from one burn patient suffering from 24% total body surface area (TBSA) burn. Procedures for fabricating the device, preparing the chemoattractant gradient, and performing time-lapse imaging were conducted as explained above with respect to examples 2-4.
Neutrophil chemotaxis was monitored over a 3 week treatment period. FIG. 10A is a plot of neutrophil migration counts in the attractant chamber with no chemoattractant gradient, with fMLP chemoattractant gradient [100 nM], and with LTB4 chemoattractant gradient [100 nM]. FIG. 10B is a plot of velocity [μm/min] of neutrophils migrating to LTB4 compared with fMLP over a three week period. FIG. 10C is a plot of directionality index of neutrophils migrating to LTB4 compared with fMLP. All graphs correspond to average cell counts across 16 attractant chambers.

In assay [3] the test system is human neutrophils. The experiment in a line: Inter-species microfluidic neutrophil chemotaxis from one droplet of whole blood: human. The format is cell-based. As to conditions: for percentage of neutrophils that migrated: 2 μL whole blood. The method, then: (§1) The microfluidic device to study mouse, rat and human neutrophil chemotaxis from one droplet of whole blood was designed with three main components: focal chemoattractant chambers (FCCs) (200×200 μm), a central whole-blood loading chamber, and migration channels containing RBC filtering regions. The filter for each migration channel included 10 short channels (Length ˜75 μm) with a 3.5 μm narrowing region (‘pinch’) connected horizontally through an approximately 200-μm-long channel to create 90° bending sections capable of trapping the RBCs to prevent them from dispersing into the rest of the migration channel. All migration channels were designed to be 12 μm wide and 3 μm high to establish only a single column of RBCs for efficient trapping while allowing active mouse, rat and human neutrophils to easily migrate through. The devices were fabricated as described above in Example 2.
(§2) For humans, 50 μL of capillary blood was collected by pricking a finger of healthy volunteers. For mice, 50 μL of capillary blood was collected by the facial vein method (Institutional animal care and use Protocol #2007N000136) requiring no anesthesia. For rats, 50 μL of venous blood was collected from the tail vein (Institutional animal care and use Protocol #2012N000034) using 1-2% Isoflurane inhalant. The blood was then pipetted into an eppendorf tube containing a mixed solution of HBSS media, heparin anti-coagulant (1.65 USP/50 μL of blood), and Hoechst stain (10 μL, 32.4 μM). The eppendorf tube was then incubated for 10 minutes at 37° C. and 5% CO2 to allow for proper staining of the nuclei.
(§3) All reagents and whole blood were pipetted into the device and there was no flow or requirement of external syringe pump. A gradient of the chemoattractant was established along the migration channels by diffusion between the chemoattractant chambers and the central loading chamber. Prior to cell loading and immediately after bonding to the well plate, donut-shaped devices were filled with the chemoattractant solution containing 25 nM of fibronectin (Sigma-Aldrich, St. Louis, Mo.). The well plate was then placed in a desiccator under vacuum to de-gas for 15 minutes to ensure proper filling of the chambers while the PDMS surface was still hydrophilic. Afterwards, the central whole-blood loading chamber and the outside region surrounding the donut were washed thoroughly in each well to establish the gradient along the migration channels. The wells of the plate were then filled with RPMI 1640 media and allowed to sit for a period of 15 minutes to generate stable chemoattractant gradients. Finally, using a gel-lading tip, 2 μL of whole blood was slowly pipetted into the central whole-blood loading chamber.
(§4) Time-lapse imaging was performed on a Nikon Eclipse Ti microscope with 10-15× magnification and a biochamber heated to 37° C. with 5% CO2 and 80% humidity. […] For each experiment, at least 50 neutrophils were manually tracked. Directionality of primed neutrophils was quantified by counting the number of cells that followed the chemotactic gradient and turned at the bifurcation toward the chemoattractant chamber as opposed to the number of cells that exited the device to the peripheral region. Cell velocities were calculated using ImageJ (NIH). Total percentage of neutrophils to migrate was estimated using a COMSOL simulation model that estimated that 30.6% of area in whole blood loading chamber from which neutrophils could migrate in experimental time to be above critical gradient concentration. For an average human experiment, this would estimate ˜277 neutrophils per well that are exposed to chemoattractant gradient.

For assay [4], the system named is Wistar rat neutrophils. Briefly: Inter-species microfluidic neutrophil chemotaxis from one droplet of whole blood: Wistar rat. The format is cell-based. Conditions: for percentage of neutrophils that migrated: Wistar rat whole blood. The method, then: as §1, §2
All reagents and whole blood were pipetted into the device and there was no flow or requirement of external syringe pump. A gradient of the chemoattractant was established along the migration channels by diffusion between the chemoattractant chambers and the central loading chamber. Prior to cell loading and immediately after bonding to the well plate, donut-shaped devices were filled with the chemoattractant solution containing 25 nM of fibronectin (Sigma-Aldrich, St. Louis, Mo.). The well plate was then placed in a desiccator under vacuum to de-gas for 15 minutes to ensure proper filling of the chambers while the PDMS surface was still hydrophilic. […]
Time-lapse imaging was performed on a Nikon Eclipse Ti microscope with 10-15× magnification and a biochamber heated to 37° C. with 5% CO2 and 80% humidity. […] Directionality of primed neutrophils was quantified by counting the number of cells that followed the chemotactic gradient and turned at the bifurcation toward the chemoattractant chamber as opposed to the number of cells that exited the device to the peripheral region. Cell velocities were calculated using ImageJ (NIH). […]

For assay [5], the system named is mouse neutrophils. Briefly: Inter-species microfluidic neutrophil chemotaxis from one droplet of whole blood: C57BL/6 and Sv129S6 mice. The format is cell-based. As to conditions: for directionality of Sv129S6 mouse neutrophils compared with humans: Sv129S6 mouse versus human. The procedure:
as §1, §2, §3, §4

Where [6] appears, read: 1 week after burn, 100 nM gradient, versus healthy volunteer.

With fibronectin, in assay [1] (25 nM, pin prick and venous blood), the “effect of inclusion in the chemoattractant solution on final neutrophil counts migrating towards fMLP” value was “does not appear to change final neutrophil counts”.
In the case of `CSCC[C@H](NC=O)C(=O)N[C@@H](CC(C)C)C(=O)N[C@@H](Cc1ccccc1)C(=O)O` [fMLP, N-formyl-methionyl-leucyl-phenylalanine], the “neutrophils recruited from finger prick whole blood (count)” value in assay [1] (100 nM gradient, after 200 min) is 86±7 cells/device. Also, the neutrophil accumulation numbers result in assay [1] (100 nM gradient, after 3.5 hours, venous, finger prick and isolated neutrophil sources) is “around 135±20 cells/device”. Also, the “average neutrophil migration counts in 6 separate devices” value in assay [1] (100 nM gradient, finger prick whole blood of one healthy donor, after 200 min) is reported as 83±12 cells. Moreover, the “neutrophil migration counts per chamber, average of healthy donors” value in assay [1] (100 nM gradient, finger prick whole blood, after 200 min, 5 out of 7 donors clustered around it) worked out at 92±35 cells. The “time until neutrophils began migrating towards the gradient” value in assay [1] (100 nM gradient, venous and finger prick whole blood and isolated neutrophils) is at most 20 min. The “neutrophil count recruited relative to LTB4” value in assay [1] (100 nM gradients, finger prick whole blood, 200 min) is “two-fold higher count”. In assay [1] (finger prick whole blood), this molecule had a neutrophil velocity of 19 ±6 μm/min. In assay [2] (setting [6]), this molecule registered a reduction in directionality of 50%. For the same molecule, the “reduction in neutrophil velocity” value in assay [2] (setting [6]) was 75%; in assay [2] (two weeks post-burn), 60%. Besides, in assay [2], the “neutrophil accumulation counts versus healthy volunteer” value is given as “lower than the average healthy volunteer count”. In addition, the “number of cells accumulating, above the normal healthy volunteer range” value in assay [2] (two weeks post burn, patient had fever) stood at 15%. Also, the “directional index of neutrophils” value in assay [3] was 0.85±0.06; in assay [4] (rat), 0.62±0.12; in assay [5] (C57BL/6 mouse), 0.61±0.07; in assay [5] (Sv129S6 mouse), 0.82±0.06. Besides, the “velocity of neutrophils towards the chemoattractant” value is 23.4±5.4 μm/min in assay [3], 26.2±5.9 μm/min in assay [4] (rat), 13±7.4 μm/min in assay [5] (C57BL/6 mouse) and 19.7±8.7 μm/min in assay [5] (Sv129S6 mouse). Moreover, the “percentage of neutrophils that migrated” value was found to be 55.8±19.8% in assay [3] and 10.9±8.5% in assay [4]. The “velocity of C57BL/6 neutrophils, fold lower than Sv129S6, rat or human” value in assay [5] (C57BL/6 mouse versus Sv129S6, rat, human) is given as around 2.5 fold.
Regarding `CCCCC/C=C\C[C@@H](O)/C=C/C=C/C=C\[C@@H](O)CCCC(=O)O` [LTB4, Leukotriene B4], the “neutrophils recruited from finger prick whole blood (count)” value in assay [1] (100 nM gradient, after 200 min) turned out to be 39±12 cells/device. The molecule also gave a neutrophil velocity in assay [1] (finger prick whole blood) of 20±7 μm/min. In addition, the “neutrophil accumulation counts versus healthy volunteer” value in assay [2] was “in the normal range”. Besides, in assay [2] (two weeks post-burn), the “reduction in neutrophil velocity” value is reported as 40%. The “percentage of neutrophils that migrated” value in assay [3] turned out to be 54.0±5.6%; in assay [4] it was 2.8±1.1%; in assay [5] (C57BL/6 mouse whole blood), 52.7±24%; in assay [5] (Sv129S6 mouse whole blood), 99.5±13%. Further, the “directionality of Sv129S6 mouse neutrophils compared with humans” value in assay [5] is on record as “comparable”.

B1: C5a: the protein fragment C5a, neutrophil attractant (protein, UniProt P01031 678-751, looked up)
C5a anaphylatoxin: TLQKKIEEIAAKYKHSVVKKCCYDGACVNNDETCEQRAARISLGPRCIKAFTECCVVASQLRANISHKDMQLGR
modifications: C5a anaphylatoxin
notes: the protein fragment C5a, neutrophil attractant
On to B1, for which the “percentage of neutrophils activated” value in assay [3] was determined as 63.3±7.6%; in assay [5] (Sv129S6 mouse), 18.3±3%. Further, the “percentage of neutrophils that migrated in response to the chemoattractant in the FCC” value is 26.8±5.9% in assay [3] and 1±0.8% in assay [5] (mouse (Sv129S6)). Also, the “directionality of Sv129S6 mouse neutrophils compared with humans” value in assay [5] is recorded as “lower than in humans”. The “migration pattern of activated mouse neutrophils” value in assay [5] (mouse) is listed as “random migration”.
